{
  "source": "patent US6825340B2",
  "about": "“Methods and reagents for inactivating ribonucleases” (Ambion, Inc., priority 1998, dated 2004)",
  "key": {"[1]": {"test": "DTNB test of DTT reducing strength (absorbance at 412 nm)", "type": "physicochemical", "description": "DTT has low redox potential (−0.33 volts at pH 7.0) and is capable of maintaining monothiols effectively in the reduced form and of reducing disulfides quantitatively (Cleland, 1964). DTT acts as a protective agent for free sulfhydryl groups. […] DTT's reducing activity can be accurately assayed using 5, 5′-dithiobis (2-nitrobenzoic acid) or DTNB (Cleland, 1964). The reduction of DTNB mediated by DTT generates a yellow color whose absorbance can be measured at 412 nm using a spectrophotometer. RNase A, RNase 1 and RNase T1 all contain disulfide bonds (Ryle and Anfinesen, 1957; Barnard, 1969) and, therefore, are susceptible to reduction.\nFIG. 5. DTT is oxidized by incubating at 65° C. for 6 days. DTT was made to 100 mM in water and incubated at 65° C. for 6 days. Fresh DTT and the heated 100 mM were diluted in water to different concentrations and subjected to the DTNB test. Absorbance at 412 nm indicates the reducing strength of the DTT.\nTo assess the effect that the ribonuclease mixture has on the oxidation of DTT, the RNase mixture at 1 μg/ml was incubated with DTT at 0.05, 0.1, 0.15, 0.2 and 0.25 mM at 60° C. for 20 minutes. 0.1 ml of each sample was added to 0.8 ml of 0.1 M KPO4 (pH 7.7) and 0.1 ml DTNB in 0.1 KPO4 (pH 7.7). Samples which were not treated with heat were also subjected to the DTNB assay for comparison. The DTNB reaction mixtures were incubated at 21° C. for 10 minutes to allow the yellow color to develop. Absorbances were measured at 412 nm. The results were that there was no difference in the reactivity of the DTT whether it had been used to inactivate the RNase mixture or not.\nDTT was made to 100 mM in water and incubated at 65° C. for 6 days. This material was diluted to 50, 100, 150, 200, 250 micromolar in water and then assayed for its reducing strength using the DTNB test described in Example 7 and compared to the same concentrations of DTT made fresh in water. The absorbance at 412 nm directly correlates with reducing strength. The greater the absorbance, the greater the reducing power."}, "DNase I": {"target": "DNase I (Bos taurus, UniProt P00639)", "sequence (P00639 23-282)": "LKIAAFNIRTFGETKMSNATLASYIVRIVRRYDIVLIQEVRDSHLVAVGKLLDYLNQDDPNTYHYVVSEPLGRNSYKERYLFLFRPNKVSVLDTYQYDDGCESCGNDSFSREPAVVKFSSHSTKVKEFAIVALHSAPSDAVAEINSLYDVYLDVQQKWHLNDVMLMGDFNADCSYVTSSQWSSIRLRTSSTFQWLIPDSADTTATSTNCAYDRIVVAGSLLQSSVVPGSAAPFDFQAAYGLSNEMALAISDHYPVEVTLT", "test": "DNase I activity after reducing/heat treatment, plasmid DNA degradation", "type": "biochemical", "settings": "20 mM reducing reagent in water; DNase I 0.4 units/μl; 60° C. for 20 minutes", "description": "DNase I is commonly used to degrade contaminating DNA in RNA preparations. To test whether the inactivation method affected DNase I activity, DNase I (final concentration of 0.4 units/μl) was added to water containing 20 mM DTT, DTE or β-mercaptoethanol. The mixture was incubated at 60° C. for 20 minutes. After the heat treatment, the DNase I activity was tested by incubating the treated DNase I with plasmid DNA (0.2 μg/μl ) at 37° C. for one hour followed by electrophoresis in a 1% agarose gel."}, "[2]": {"target": "T1, MMLV reverse transcriptase (Moloney murine leukemia virus, UniProt P03355)", "T1 construct": "purchased Ambion, Inc", "test": "Reverse transcription reaction (RETROscript kit), dCTP[α-32P] incorporation", "type": "biochemical", "settings": "20 mM reducing reagent", "description": "(§1) FIG. 2. […] Reverse transcriptions were performed using the RETROscript™ kit (Ambion, Inc.). Mouse total RNA in DEPC-treated water was reverse transcribed with either MMLV or AMV reverse transcriptase in the presence or absence of 20 mM DTT. dCTP[α^32P] was included in the reactions to measure the efficiency of reverse transcription. Following incubation at 42° C. for 1 h, 5 μl of each reaction was subjected to TCA precipitation to measure the amount of dCTP[α^32P] incorporated into cDNA by reverse transcription.\n(§2) The reverse transcription reactions were performed using the RETROscript™ kit (Ambion, Inc.). The following were assembled with or without 20 mM of the reducing reagents in a final volume of 19 μl: dNTPs (0.5 mM each), oligo dT (5 μM), 0.4 μl dCTP[α-^32p] (3000 Ci/mmol), 10 mM Tris-HCl (pH 8.3): 50 mM KCl: 1.5 mM MgCl2, mouse brain total RNA (4 μg). The reaction mixtures were incubated at 65° C. for 10 minutes. 1 μl (100 units) of AMV or MMLV reverse transcriptase were added and then the reactions were incubated at 42° C. for 1 hour. Reverse transcription by either enzyme was not inhibited by DTT (FIG. 2) or by DTE or β-mercaptoethanol."}, "[3]": {"tested_on": "AMV reverse transcriptase", "test": "Reverse transcription reaction (RETROscript kit), dCTP[α-32P] incorporation", "type": "biochemical", "settings": "20 mM reducing reagent", "description": "as §1, §2"}},
  "note": "Entries after “also recorded” stand apart in the source; their conditions may differ.",
  "data": [
    {"compound": "O[C@H](CS)[C@H](O)CS", "note": "[DTT, dithiothreitol]", "values": [
      {"measurement": "stability of DTT reducing strength", "setting": "[1]; DTT 100 mM in water incubated at 65° C. for 6 days", "result": "completely oxidized"},
      {"measurement": "reactivity of DTT after use to inactivate the RNase mixture vs non-reacted DTT", "setting": "[1]; RNase mixture 1 μg/ml, DTT 0.05-0.25 mM, 60° C. for 20 minutes", "result": "no difference"},
      {"measurement": "loss of DTT reducing power with each heating step", "setting": "[1]; sequential inactivations, 60° C. for 20 minutes", "result": "no detectable loss"},
      {"measurement": "DNase I activity after reducing/heat treatment", "setting": "DNase I", "result": "not affected"},
      {"measurement": "inhibition of reverse transcription by MMLV reverse transcriptase", "setting": "[2]", "result": "does not inhibit; also recorded: not inhibited"},
      {"measurement": "inhibition of reverse transcription by AMV reverse transcriptase", "setting": "[3]", "result": "does not inhibit; also recorded: not inhibited"}
    ]}
  ]
}
